Publication doi:10.1101/2023.04.18.537371v1 (bioRxiv, 2023)
Peptide text beside a SMILES is read from it.

What was measured:
P-gp = P-gp (Homo sapiens, UniProt P08183); assay: Inhibition of P-gp in Caco-2 cells; assay type: in vitro ADME
Plasma stability = assay type: in vitro ADME, CD-1 mouse
CYP2C9 = CYP2C9 (Homo sapiens, UniProt P11712); assay: CYP time-dependent inhibition assay; assay type: in vitro ADME
CYP3A4 = assay: CYP induction assay in human hepatocytes; assay type: in vitro ADME; settings: cryopreserved human hepatocytes, three donors, 0.100 to 15.0 μM, 48 h, 37°C
CYP2C8 = target: T1, CYP2C8 (Homo sapiens, UniProt P10632); assay: CYP time-dependent inhibition assay; assay type: in vitro ADME
T1 sequence (P10632 1-490): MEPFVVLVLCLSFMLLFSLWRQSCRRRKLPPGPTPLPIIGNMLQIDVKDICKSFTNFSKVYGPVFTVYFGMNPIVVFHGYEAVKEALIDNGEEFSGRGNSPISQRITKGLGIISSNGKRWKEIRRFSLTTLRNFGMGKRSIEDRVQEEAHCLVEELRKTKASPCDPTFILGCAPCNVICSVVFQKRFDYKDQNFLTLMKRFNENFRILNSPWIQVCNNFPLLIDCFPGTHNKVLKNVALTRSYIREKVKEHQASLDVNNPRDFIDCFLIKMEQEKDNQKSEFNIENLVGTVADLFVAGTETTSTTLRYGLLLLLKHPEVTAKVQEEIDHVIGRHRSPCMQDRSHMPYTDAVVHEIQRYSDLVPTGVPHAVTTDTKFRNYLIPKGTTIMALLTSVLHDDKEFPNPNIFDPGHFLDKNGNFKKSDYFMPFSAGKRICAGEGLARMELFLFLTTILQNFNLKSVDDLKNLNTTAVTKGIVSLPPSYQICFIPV

[1] = Tissue distribution in SD rats after single subcutaneous injection; assay type: in vivo, SD rat
CD-1 mouse hepatocytes = assay: Hepatocyte stability; assay type: in vitro ADME; settings: 1.00 μM
[2] = In vitro blood to plasma partitioning; assay type: in vitro ADME, dog
CYP2D6 = CYP2D6 (Homo sapiens, UniProt P10635); assay: CYP time-dependent inhibition assay; assay type: in vitro ADME
dog hepatocytes = assay: Metabolite identification in hepatocytes; assay type: in vitro ADME; settings: cryopreserved dog hepatocytes, FC-12738 10 μM, 37 °C, 240 min, LC-UV-MS
OATP1B1 = OATP1B1 (Homo sapiens, UniProt Q9Y6L6); assay: Transporter inhibition in HEK293 cells; assay type: in vitro ADME
human hepatocytes = assay: Metabolite identification in hepatocytes; assay type: in vitro ADME; settings: cryopreserved human hepatocytes, FC-12738 10 μM, 37 °C, 240 min, LC-UV-MS
SD rat hepatocytes = assay: Hepatocyte stability; assay type: in vitro ADME; settings: 1.00 μM
CYP2C19 = CYP2C19 (Homo sapiens, UniProt P33261); assay: CYP450 inhibition assay; assay type: in vitro ADME
[3] = cutoff IC50 shift >= 1.5-fold, 30 min pre-incubation ± NADPH
[4] = kidney, male SD rats, SC 10 mg/kg single
[5] = large intestine, male SD rats, SC 10 mg/kg single
[6] = liver, male SD rats, SC 10 mg/kg single
[7] = lung, male SD rats, SC 10 mg/kg single
[8] = male, SD, rat, fat, sc, 10 mg/kg
[9] = male, SD, rat, heart, sc, 10 mg/kg
[10] = male, SD, rat, kidney, sc, 10 mg/kg
[11] = male, SD, rat, large intestine, sc, 10 mg/kg
[12] = male, SD, rat, liver, sc, 10 mg/kg
[13] = male, SD, rat, lung, sc, 10 mg/kg
[14] = male, SD, rat, muscle, sc, 10 mg/kg
[15] = male, SD, rat, plasma, sc, 10 mg/kg
[16] = male, SD, rat, small intestine, sc, 10 mg/kg
[17] = male, SD, rat, spleen, sc, 10 mg/kg
[18] = male, SD, rat, stomach, sc, 10 mg/kg
[19] = muscle, male SD rats, SC 10 mg/kg single
[20] = small intestine, male SD rats, SC 10 mg/kg single
[21] = spleen, male SD rats, SC 10 mg/kg single
[22] = stomach, male SD rats, SC 10 mg/kg single

CYP2C9, sequence (P11712 whole entry): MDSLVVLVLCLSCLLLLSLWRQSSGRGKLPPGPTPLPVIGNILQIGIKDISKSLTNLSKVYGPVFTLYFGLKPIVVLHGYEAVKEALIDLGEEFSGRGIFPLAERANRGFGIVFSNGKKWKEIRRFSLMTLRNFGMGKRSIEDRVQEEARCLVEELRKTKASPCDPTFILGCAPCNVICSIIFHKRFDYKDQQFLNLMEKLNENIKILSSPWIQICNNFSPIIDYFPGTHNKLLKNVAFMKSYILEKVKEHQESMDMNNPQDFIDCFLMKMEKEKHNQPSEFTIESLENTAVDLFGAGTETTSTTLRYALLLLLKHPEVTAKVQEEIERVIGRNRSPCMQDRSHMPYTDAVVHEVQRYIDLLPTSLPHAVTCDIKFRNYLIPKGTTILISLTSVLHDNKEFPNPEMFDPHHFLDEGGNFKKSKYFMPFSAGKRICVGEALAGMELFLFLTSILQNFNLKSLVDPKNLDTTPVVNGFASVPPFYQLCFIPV
CYP2D6, sequence (P10635 whole entry): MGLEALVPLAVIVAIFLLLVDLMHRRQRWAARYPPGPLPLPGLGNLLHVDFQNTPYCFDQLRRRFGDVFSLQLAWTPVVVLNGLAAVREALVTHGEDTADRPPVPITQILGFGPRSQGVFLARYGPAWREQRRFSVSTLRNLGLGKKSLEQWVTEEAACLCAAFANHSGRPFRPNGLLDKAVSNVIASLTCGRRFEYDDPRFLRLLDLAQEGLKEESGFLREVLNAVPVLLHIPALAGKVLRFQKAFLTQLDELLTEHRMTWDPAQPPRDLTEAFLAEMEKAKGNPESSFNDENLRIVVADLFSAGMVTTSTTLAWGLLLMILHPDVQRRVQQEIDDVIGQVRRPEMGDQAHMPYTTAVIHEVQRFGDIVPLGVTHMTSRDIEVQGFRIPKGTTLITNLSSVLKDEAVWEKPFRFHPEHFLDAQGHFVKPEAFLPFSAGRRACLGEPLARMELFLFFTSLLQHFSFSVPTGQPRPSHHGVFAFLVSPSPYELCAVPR
P-gp, sequence (P08183 whole entry): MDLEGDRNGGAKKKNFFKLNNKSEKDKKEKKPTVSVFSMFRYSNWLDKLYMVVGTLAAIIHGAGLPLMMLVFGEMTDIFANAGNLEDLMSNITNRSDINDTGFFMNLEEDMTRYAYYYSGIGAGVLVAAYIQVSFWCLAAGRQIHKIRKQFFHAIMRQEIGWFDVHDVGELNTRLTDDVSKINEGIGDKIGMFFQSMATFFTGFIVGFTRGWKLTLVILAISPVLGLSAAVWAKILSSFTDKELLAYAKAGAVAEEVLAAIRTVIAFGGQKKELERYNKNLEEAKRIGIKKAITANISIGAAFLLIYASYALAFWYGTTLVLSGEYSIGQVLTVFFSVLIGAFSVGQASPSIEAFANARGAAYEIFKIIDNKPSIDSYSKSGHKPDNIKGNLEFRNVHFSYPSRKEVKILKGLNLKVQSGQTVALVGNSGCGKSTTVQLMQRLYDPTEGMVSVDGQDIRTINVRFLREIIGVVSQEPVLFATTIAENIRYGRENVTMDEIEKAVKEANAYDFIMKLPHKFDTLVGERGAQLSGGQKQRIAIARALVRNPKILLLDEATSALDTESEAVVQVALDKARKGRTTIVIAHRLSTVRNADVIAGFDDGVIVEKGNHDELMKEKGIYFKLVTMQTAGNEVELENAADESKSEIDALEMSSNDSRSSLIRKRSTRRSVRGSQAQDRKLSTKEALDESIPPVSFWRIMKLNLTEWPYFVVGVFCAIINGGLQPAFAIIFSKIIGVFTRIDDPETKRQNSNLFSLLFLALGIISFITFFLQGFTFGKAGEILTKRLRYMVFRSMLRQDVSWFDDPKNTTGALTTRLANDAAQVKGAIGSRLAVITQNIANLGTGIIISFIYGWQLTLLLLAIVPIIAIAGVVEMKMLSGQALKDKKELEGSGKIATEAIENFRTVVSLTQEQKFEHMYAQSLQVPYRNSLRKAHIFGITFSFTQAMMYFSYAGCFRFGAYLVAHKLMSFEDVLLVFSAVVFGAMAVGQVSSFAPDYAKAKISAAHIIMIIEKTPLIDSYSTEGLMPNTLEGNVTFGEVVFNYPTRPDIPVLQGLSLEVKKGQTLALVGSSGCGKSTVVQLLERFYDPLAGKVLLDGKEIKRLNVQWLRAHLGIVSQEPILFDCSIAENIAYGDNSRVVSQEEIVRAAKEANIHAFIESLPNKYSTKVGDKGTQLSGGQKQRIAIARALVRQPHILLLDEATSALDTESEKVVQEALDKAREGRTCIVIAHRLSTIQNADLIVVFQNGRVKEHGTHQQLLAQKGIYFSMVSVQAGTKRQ
OATP1B1, sequence (Q9Y6L6 whole entry, species assumed): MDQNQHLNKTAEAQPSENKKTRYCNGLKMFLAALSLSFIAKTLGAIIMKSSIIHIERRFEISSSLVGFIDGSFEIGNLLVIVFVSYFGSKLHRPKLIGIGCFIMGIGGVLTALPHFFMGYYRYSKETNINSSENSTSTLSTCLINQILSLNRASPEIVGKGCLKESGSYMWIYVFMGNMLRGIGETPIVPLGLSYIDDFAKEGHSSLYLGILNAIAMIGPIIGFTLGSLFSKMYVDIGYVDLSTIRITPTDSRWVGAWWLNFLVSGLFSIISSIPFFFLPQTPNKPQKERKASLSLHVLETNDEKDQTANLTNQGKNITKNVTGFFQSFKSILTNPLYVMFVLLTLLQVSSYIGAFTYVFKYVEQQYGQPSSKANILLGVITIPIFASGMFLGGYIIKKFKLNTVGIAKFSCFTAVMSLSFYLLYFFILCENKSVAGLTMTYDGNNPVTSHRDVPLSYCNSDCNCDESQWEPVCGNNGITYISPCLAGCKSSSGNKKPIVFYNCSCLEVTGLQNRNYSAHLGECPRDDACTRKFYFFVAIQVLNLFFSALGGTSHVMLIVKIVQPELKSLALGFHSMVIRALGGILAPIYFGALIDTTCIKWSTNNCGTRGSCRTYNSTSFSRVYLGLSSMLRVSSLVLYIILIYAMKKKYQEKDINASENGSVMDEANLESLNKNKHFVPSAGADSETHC
CYP2C19, sequence (P33261 whole entry): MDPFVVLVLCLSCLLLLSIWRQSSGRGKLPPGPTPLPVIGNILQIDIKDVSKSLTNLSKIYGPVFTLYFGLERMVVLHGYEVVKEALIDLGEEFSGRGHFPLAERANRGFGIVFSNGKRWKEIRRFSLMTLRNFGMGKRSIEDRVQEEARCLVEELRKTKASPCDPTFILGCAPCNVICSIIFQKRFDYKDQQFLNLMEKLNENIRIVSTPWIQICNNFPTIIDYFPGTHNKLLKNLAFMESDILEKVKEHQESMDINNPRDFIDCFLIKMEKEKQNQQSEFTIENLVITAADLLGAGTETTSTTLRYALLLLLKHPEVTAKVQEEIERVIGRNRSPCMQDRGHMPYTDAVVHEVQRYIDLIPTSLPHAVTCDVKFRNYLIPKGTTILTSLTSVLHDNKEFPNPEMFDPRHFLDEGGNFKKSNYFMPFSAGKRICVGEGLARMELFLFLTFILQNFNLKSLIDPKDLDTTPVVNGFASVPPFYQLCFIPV

CC(C)[C@@H](NC(=O)[C@H](N)Cc1ccc(O)cc1)C(=O)N[C@H](CC(=O)O)C(=O)N[C@H](CCCCN)C(=O)N[C@H](CCCNC(=N)N)C(=O)O [FC-12738, (D-Tyr)-(D-Val)-(D-Asp)-(D-Lys)-(D-Arg)] (HELM PEPTIDE1{[dY].[dV].[dD].[dK].[dR]}$$$$V2.0)
IC50 (P-gp): > 100 µM
remaining at 10 min, 2 μM (Plasma stability; CD-1, mouse, plasma): 104%
remaining at 0.5 h, 2 μM (Plasma stability; CD-1, mouse, plasma): 100%
remaining at 1 h, 2 μM (Plasma stability; CD-1, mouse, plasma): 111%
remaining at 2 h, 2 μM (Plasma stability; CD-1, mouse, plasma): 100%
half-life (Plasma stability; CD-1 mouse plasma, 2.00 μM, 37.0 °C, up to 120 min): > 372.7 min
IC50 (CYP2C9): > 100 µM
Time-dependent inhibition of CYP2C9 (CYP2C9; [3]): no time-dependent inhibition
Induction of CYP3A4 (enzyme activity and gene expression) (CYP3A4): not considered as an inducer
IC50 (CYP2C8): > 100 µM
Time-dependent inhibition of CYP2C8 (CYP2C8; [3]): no time-dependent inhibition
AUC0-last [1, 4]: 135000 ng·h/g
Cmax [1, 4]: 28500 ng/g
Tmax [1, 4]: 30 min
AUC0-last [1, 5]: 4040 ng·h/g
Cmax [1, 5]: 2150 ng/g
Tmax [1, 5]: 30 min
AUC0-last [1, 6]: 4190 ng·h/g
Cmax [1, 6]: 1270 ng/g
Tmax [1, 6]: 30 min
AUC0-last [1, 7]: 6840 ng·h/g
Cmax [1, 7]: 5330 ng/g
Tmax [1, 7]: 30 min
Tolerability / adverse effects in-life ([1]; male SD rats, SC 10 mg/kg single, tissue distribution study): No adverse effect was observed
tissue level at time at 0.5 h ([1]; male, SD, rat, brain, sc, 10 mg/kg): 128 ng/g
tissue level at time at 0.5 h [1, 8]: 1070 ng/g
tissue level at time at 2 h [1, 8]: 103 ng/g
tissue level at time at 0.5 h [1, 9]: 2150 ng/g
tissue level at time at 2 h [1, 9]: 365 ng/g
tissue level at time at 0.5 h [1, 10]: 28500 ng/g
tissue level at time at 2 h [1, 10]: 17300 ng/g
tissue level at time at 8 h [1, 10]: 14300 ng/g
tissue level at time at 0.5 h [1, 11]: 2150 ng/g
tissue level at time at 2 h [1, 11]: 430 ng/g
tissue level at time at 8 h [1, 11]: 226 ng/g
tissue level at time at 0.5 h [1, 12]: 1270 ng/g
tissue level at time at 2 h [1, 12]: 616 ng/g
tissue level at time at 8 h [1, 12]: 269 ng/g
tissue level at time at 0.5 h [1, 13]: 5330 ng/g
tissue level at time at 2 h [1, 13]: 752 ng/g
tissue level at time at 8 h [1, 13]: 109 ng/g
tissue level at time at 0.5 h [1, 14]: 1490 ng/g
tissue level at time at 2 h [1, 14]: 191 ng/g
tissue level at time at 8 h [1, 14]: 46.4 ng/g
AUC(0-t) [1, 15]: 14400 ng·h/mL
Cmax [1, 15]: 14200 ng/mL
Tmax [1, 15]: 30 min
level at 0.5 h [1, 15]: 14200 ng/mL
level at 2 h [1, 15]: 1790 ng/mL
level at 8 h [1, 15]: 5.04 ng/mL
tissue level at time at 0.5 h [1, 16]: 2060 ng/g
tissue level at time at 2 h [1, 16]: 775 ng/g
tissue level at time at 8 h [1, 16]: 188 ng/g
tissue level at time at 0.5 h [1, 17]: 1490 ng/g
tissue level at time at 2 h [1, 17]: 345 ng/g
tissue level at time at 8 h [1, 17]: 239 ng/g
tissue level at time at 0.5 h [1, 18]: 3370 ng/g
tissue level at time at 2 h [1, 18]: 555 ng/g
tissue level at time at 8 h [1, 18]: 96.7 ng/g
AUC0-last [1, 19]: 1930 ng·h/g
Cmax [1, 19]: 1490 ng/g
Tmax [1, 19]: 30 min
AUC0-last [1, 20]: 4970 ng·h/g
Cmax [1, 20]: 2060 ng/g
Tmax [1, 20]: 30 min
AUC0-last [1, 21]: 3280 ng·h/g
Cmax [1, 21]: 1490 ng/g
Tmax [1, 21]: 30 min
AUC0-last [1, 22]: 4760 ng·h/g
Cmax [1, 22]: 3370 ng/g
Tmax [1, 22]: 30 min
intrinsic clearance CLint(hep) (CD-1 mouse hepatocytes; cryopreserved CD-1 mouse hepatocytes, 37.0°C, 120 min): < 1.9 μL/min/10^6 cells
half-life (CD-1 mouse hepatocytes; cryopreserved CD-1 mouse hepatocytes, 37.0°C, 120 min, LC-MS/MS): > 372.7 min
hepatic clearance CLint(liver) (CD-1 mouse hepatocytes; scaled from CD-1 mouse hepatocytes): < 22.1 mL/min/kg
Mean erythrocyte to plasma ratio KE/P ([2]; dog whole blood, 0.200 μM, 37°C, 60 min): < 0.18
Mean erythrocyte to plasma ratio KE/P ([2]; dog whole blood, 2.00 μM, 37°C, 60 min): 0.07
Mean erythrocyte to plasma ratio KE/P ([2]; dog whole blood, 10.0 μM, 37°C, 60 min): < 0.14
Mean blood-to-plasma ratio KB/P ([2]; dog whole blood, 10.0 μM, 37°C, 60 min, LC-MS/MS): 0.58
tissue to tissue ratio at 1 h, 0.2 µM ([2]; dog, whole blood): 0.57
tissue to tissue ratio at 1 h, 2 µM ([2]; dog, whole blood): 0.55
IC50 (CYP2D6): > 100 µM
Time-dependent inhibition of CYP2D6 (CYP2D6; [3]): no time-dependent inhibition
Relative Abundance (UV%) (dog hepatocytes): 80.76%
IC50 (OATP1B1): > 100 µM
Relative Abundance (UV%) (human hepatocytes): 91.82%
intrinsic clearance CLint(hep) (SD rat hepatocytes; cryopreserved SD rat hepatocytes, 37.0°C, 120 min): < 1.9 μL/min/10^6 cells
half-life (SD rat hepatocytes; cryopreserved SD rat hepatocytes, 37.0°C, 120 min, LC-MS/MS): > 372.7 min
hepatic clearance CLint(liver) (SD rat hepatocytes; scaled from SD rat hepatocytes): < 8.7 mL/min/kg
IC50 (CYP2C19): > 100 µM
